≈ marks a conversion by molar mass, not a printed value. Where two headings read alike, the source gives them in different places. Positions of bridges follow the written chain, without caps; N, C: chain ends. Non-standard residues stand in square brackets, D forms with d. Residues, ends and D or L forms follow the SMILES beside them. ξ: configuration not given here. *: point of attachment. Pentadecanoyl(3ξ-OH,15-Gua) = N=C(N)NCCCCCCCCCCCCC(O)CC(=O)*; d(aThr) = C[C@@H](O)[C@@H](N)C(=O)O; Thr(3ξ) = CC(O)[C@H](N)C(=O)O
What was measured:
Format in all cases: cell-based
[1] = system: Aspergillus fumigatus; assay: In vitro antimicrobial activity against Aspergillus fumigatus; conditions: for A. fumigatus IC50: Table 5, extracts tested at 8-200 μg/mL
Protocol: (§1) Fifty organic extracts were prepared from 25 whole broth of four microbial strains (MS1479, MS2379, MS2820, and MS2414), which were fermented in different media for the antimicrobial testing. Note each whole broth culture generated one n-butanol extract from cultural supernatant and one methanol extract from cell pellets.
(§2) The antimicrobial activities of the 50 organic extracts were studied against three fungal pathogens—Candida albicans, Aspergillus fumigatus, and Cryptococcus neoformans—and five bacterial strains-Methicillin-resistant Staphylococcus aureus (MIRSA), Escherichia coli, Pseudomonas aeruginosa, Klebsiella pneumoniae, and Vancomycin-resistant Enterococcus faecium (VRE) (FIG. 2). The test concentrations for all extracts were in the range of 8-200 μg/mL (Table 3).
(§3) The antimicrobial activities of identified fusaricidins were in an in vitro study against several clinically relevant microbes. […] For the in-vitro assays against bacteria, fusaricidins were tested against methicillin-resistant Staphylococcus aureus, vancomycin-resistant Enterococcus faecium, Escherichia coli, and Pseudomonas aeruginosa using four antibacterial drugs methicillin, vancomycin, cefotaxime, and meropenem as controls. […] Fusaricidins were also tested against fungal pathogens Cryptococcus neoformans, Candida albicans, and Aspergillus fumigatus and compared with two antifungal drugs, fluconazole and amphotericin B (Table 13). Moreover, the anti-parasitic activity was also tested against L. donovani and T. brucei (Table 14).

[2] = system: Candida albicans; assay: In vitro antimicrobial activity against Candida albicans; conditions: for IC50: Candida albicans; for C. albicans IC50: Table 5, extracts tested at 8-200 μg/mL; for C. albicans MIC (minimum inhibitory concentration): lowest concentration that allows no detectable growth
Protocol: as §1, §2, §3

[3] = system: Cryptococcus neoformans; assay: In vitro antimicrobial activity against Cryptococcus neoformans; conditions: for C. neoformans IC50: Table 5, extracts tested at 8-200 μg/mL
Protocol: as §1, §2
The potent activities against the fungal pathogen C. neoformans and the gram-positive bacteria S. aureus, MRSA, and M. intracellulare were also shown in the crude extracts (FIG. 7).
as §3

[4] = system: Klebsiella pneumoniae; assay: In vitro antimicrobial activity against Klebsiella pneumoniae; conditions: Klebsiella pneumoniae; test conc. 200-8 μg/mL (extracts), 100-4 or 10-0.4 μg/mL (drugs); read-out: K pneumoniae IC50
Protocol: as §1, §2

[5] = system: Escherichia coli; assay: In vitro antimicrobial activity against Escherichia coli
Protocol: as §1, §2, §3

[6] = system: Methicillin-resistant Staphylococcus aureus (MRSA); assay: In vitro antimicrobial activity against MRSA; conditions: for MRS IC50: Table 5, extracts tested at 8-200 μg/mL
Protocol: as §1, §2, §3

[7] = system: Pseudomonas aeruginosa; assay: In vitro antimicrobial activity against Pseudomonas aeruginosa
Protocol: as §1, §2, §3

[8] = system: Vancomycin-resistant Enterococcus faecium (VRE); assay: In vitro antimicrobial activity against VRE; conditions: for VRE IC50: Table 5, extracts tested at 8-200 μg/mL
Protocol: as §1, §2, §3

[9] = Aspergillus fumigatus, test conc. 200-8 μg/mL (extracts), 100-4 or 10-0.4 μg/mL (drugs), read-out: A. fumigatus IC50
[10] = test conc. 200-8 μg/mL (extracts), 100-4 or 10-0.4 μg/mL (drugs), read-out: C. albicans IC50
[11] = Escherichia coli, test conc. 200-8 μg/mL (extracts), 100-4 or 10-0.4 μg/mL (drugs), read-out: E. coli IC50
[12] = Staphylococcus aureus, MRSA, test conc. 200-8 μg/mL (extracts), 100-4 or 10-0.4 μg/mL (drugs), read-out: MRS IC50
[13] = Cryptococcus neoformans, test conc. 200-8 μg/mL (extracts), 100-4 or 10-0.4 μg/mL (drugs), read-out: C. neoformans IC50
[14] = Pseudomonas aeruginosa, test conc. 200-8 μg/mL (extracts), 100-4 or 10-0.4 μg/mL (drugs), read-out: P. aeruginosa IC50
[15] = test conc. 200-8 μg/mL (extracts), 100-4 or 10-0.4 μg/mL (drugs), read-out: VRE IC50
[16] = Table 12, highest test conc. fusaricidins 20, controls 100 μg/mL
[17] = Table 12, lowest concentration that allows no detectable growth
[18] = Table 13, Escherichia coli ATCC 2452
[19] = Table 13, Methicillin-resistant Staphylococcus aureus ATCC 1708
[20] = Table 13, Pseudomonas aeruginosa ATCC 2108
[21] = Table 13, Vancomycin-resistant Enterococcus faecium ATCC 700221

| Compound | IC50 [4] | IC50 [5, 11] | IC50 [6, 12] | IC50 [3, 13] | IC50 [7, 14] | VRE IC50 [8] | IC50 [8, 15] | A. fumigatus IC50 (50% growth inhibitory concentration) [1, 16] | A. fumigatus MIC (minimum inhibitory concentration) [1, 17] | C. albicans IC50 (50% growth inhibitory concentration) [2, 16] | C. albicans MIC (minimum inhibitory concentration) ([2]; Table 12) | E. coli IC50 (50% growth inhibitory concentration) [5, 18] | E. coli MIC (minimum inhibitory concentration) [5, 18] | MRSA IC50 (50% growth inhibitory concentration) [6, 19] | MRSA MIC (minimum inhibitory concentration) [6, 19] | C. neoformans IC50 (50% growth inhibitory concentration) [3, 16] | C. neoformans MIC (minimum inhibitory concentration) [3, 17] | P. aeruginosa IC50 (50% growth inhibitory concentration) [7, 20] | P. aeruginosa MIC (minimum inhibitory concentration) [7, 20] | VRE IC50 (50% growth inhibitory concentration) [8, 21] | further results |
| --- | --- | --- | --- | --- | --- | --- | --- | --- | --- | --- | --- | --- | --- | --- | --- | --- | --- | --- | --- | --- | --- |
| OC(Cn1cncn1)(Cn1cncn1)c1ccc(F)cc1F [Fluconazol] |  |  |  |  |  |  |  |  |  |  |  |  |  |  |  |  |  |  |  |  | IC50 ([1]; Aspergillus fumigatus, Table 12, highest test conc. fusaricidins 20, controls 100 μg/mL, read-out: A. fumigatus IC50 (50% growth inhibitory concentration)): > 100 µg/mL; MIC ([1]; Aspergillus fumigatus, Table 12, lowest concentration that allows no detectable growth, read-out: A. fumigatus MIC (minimum inhibitory concentration)): > 100 µg/mL; IC50 ([2]; Table 12, highest test conc. fusaricidins 20, controls 100 μg/mL, read-out: C. albicans IC50 (50% growth inhibitory concentration)): 1 µg/mL (≈ 3.27 µM); IC50 ([3]; Cryptococcus neoformans, Table 12, highest test conc. fusaricidins 20, controls 100 μg/mL, read-out: C. neoformans IC50 (50% growth inhibitory concentration)): 2.5 µg/mL (≈ 8.16 µM); MIC ([3]; Cryptococcus neoformans, Table 12, lowest concentration that allows no detectable growth, read-out: C. neoformans MIC (minimum inhibitory concentration)): 6.3 µg/mL (≈ 20.6 µM) |
| C[C@@H](O)[C@H]1C(=O)N2C(C(=O)O)=C(S[C@@H]3CN[C@H](C(=O)N(C)C)C3)[C@H](C)[C@H]12 [Meropenem] | 18.1 µg/mL (≈ 47.3 µM) | 11.5 µg/mL (≈ 30 µM) | 2.75 µg/mL (≈ 7.17 µM) | > 100 µg/mL | > 100 µg/mL | >100 µg/mL | > 100 µg/mL |  |  |  |  |  |  |  |  |  |  |  |  |  | IC50 [1, 9]: > 100 µg/mL; A. fumigatus IC50 [1]: >100 µg/mL; IC50 [2, 10]: > 100 µg/mL; C. albicans IC50 [2]: >100 µg/mL; IC50 ([5]; ATCC2452, Table 13, Escherichia coli ATCC 2452, read-out: E. coli IC50 (50% growth inhibitory concentration)): 5.4 µg/mL (≈ 14.1 µM); MIC ([5]; ATCC2452, Table 13, Escherichia coli ATCC 2452, read-out: E. coli MIC (minimum inhibitory concentration)): 12.5 µg/mL (≈ 32.6 µM); IC50 ([6]; ATCC 1708 / MRSA, Table 13, Methicillin-resistant Staphylococcus aureus ATCC 1708, read-out: MRSA IC50 (50% growth inhibitory concentration)): 5.7 µg/mL (≈ 14.9 µM); MIC ([6]; ATCC 1708 / MRSA, Table 13, Methicillin-resistant Staphylococcus aureus ATCC 1708, read-out: MRSA MIC (minimum inhibitory concentration)): 12.5 µg/mL (≈ 32.6 µM); C. neoformans IC50 [3]: >100 µg/mL; IC50 ([7]; ATCC2108, Table 13, Pseudomonas aeruginosa ATCC 2108, read-out: P. aeruginosa IC50 (50% growth inhibitory concentration)): 5.9 µg/mL (≈ 15.4 µM); MIC ([7]; ATCC2108, Table 13, Pseudomonas aeruginosa ATCC 2108, read-out: P. aeruginosa MIC (minimum inhibitory concentration)): 25 µg/mL (≈ 65.2 µM); IC50 ([8]; ATCC 700221 / VRE, Table 13, Vancomycin-resistant Enterococcus faecium ATCC 700221, read-out: VRE IC50 (50% growth inhibitory concentration)): > 100 µg/mL; MIC ([8]; ATCC 700221 / VRE, Table 13, Vancomycin-resistant Enterococcus faecium ATCC 700221, read-out: VRE MIC (minimum inhibitory concentration)): > 100 µg/mL |
| OC(Cn1cncn1)(Cn1cncn1)c1ccc(F)cc1F [Fluconazole] | > 100 µg/mL | > 100 µg/mL | > 100 µg/mL | 2.2 µg/mL (≈ 7.18 µM) | > 100 µg/mL | >100 µg/mL | > 100 µg/mL |  |  |  |  |  |  |  |  |  |  |  |  |  | IC50 [1, 9]: > 100 µg/mL; A. fumigatus IC50 [1]: >100 µg/mL; IC50 [2, 10]: < 0.1 µg/mL; C. albicans IC50 [2]: <0.1 µg/mL; MRS IC50 [6]: >100 µg/mL |
| CC(C)[C@@H]1NC(=O)[C@@H](C(C)C)NC(=O)[C@@H](NC(=O)CC(O)CCCCCCCCCCCCN=C(N)N)[C@@H](C)OC(=O)[C@@H](C)NC(=O)[C@@H](CC(N)=O)NC(=O)[C@@H]([C@@H](C)O)NC1=O (stereo partly drawn) [Fusaricidin A (SQ-1-43 A)] ({Pentadecanoyl(3ξ-OH,15-Gua)}-T[dV]V[d(aThr)][dN][dA]; ester 1-C) |  |  |  |  |  |  |  | >20/>20 μg/mL | >20/>20 μg/mL | 5.1 µg/mL | 10.0 µg/mL | >20/>20 μg/mL | >20/>20 μg/mL | 2.3 µg/mL | 2.5 µg/mL | 0.5 µg/mL | 1.3 µg/mL | >20/>20 μg/mL | >20/>20 μg/mL | 3.6 µg/mL | VRE MIC (minimum inhibitory concentration) [8, 21]: 5.0 µg/mL |
| CC(C)[C@@H]1NC(=O)[C@@H](C(C)C)NC(=O)[C@@H](NC(=O)CC(O)CCCCCCCCCCCCN=C(N)N)C(C)OC(=O)[C@@H](C)NC(=O)[C@@H](CCC(N)=O)NC(=O)[C@@H]([C@H](C)O)NC1=O (stereo partly drawn) [Fusaricidin B (SQ-1-43B)] ({Pentadecanoyl(3ξ-OH,15-Gua)}-[Thr(3ξ)][dV]V[dT][dQ][dA]; ester 1-C) |  |  |  |  |  |  |  | >20/>20 μg/mL | >20/>20 μg/mL | 9.1 µg/mL | 10.0 µg/mL | >20/>20 μg/mL | >20/>20 μg/mL | 4.2 µg/mL | 5.0 µg/mL | 1.1 µg/mL | 2.5 µg/mL | >20/>20 μg/mL | >20/>20 μg/mL | 8.7 µg/mL | VRE MIC (minimum inhibitory concentration) [8, 21]: 20.0 µg/mL |
| Fusaricidin B |  |  |  |  |  |  |  |  |  |  |  |  |  |  |  |  |  |  |  |  | activity against MRSA (in words) [6]: strong activity; activity against VRE (in words) [8]: strong activity |
| CC(C)[C@@H]1NC(=O)[C@@H](C(C)C)NC(=O)[C@@H](NC(=O)CC(O)CCCCCCCCCCCCN=C(N)N)[C@@H](C)OC(=O)[C@@H](C)NC(=O)[C@@H](CC(N)=O)NC(=O)[C@@H]([C@@H](C)O)NC1=O (stereo partly drawn) [Fusaricidin A (RRR-8-32Q)] ({Pentadecanoyl(3ξ-OH,15-Gua)}-T[dV]V[d(aThr)][dN][dA]; ester 1-C) |  |  |  |  |  |  |  | 18.5 µg/mL | > 20 µg/mL | 3.5 µg/mL | 5.0 µg/mL | >20/>20 μg/mL | >20/>20 μg/mL | 2.1 µg/mL | 2.5 µg/mL | 1.2 µg/mL | 2.5 µg/mL | >20/>20 μg/mL | >20/>20 μg/mL | 3.7 µg/mL | VRE MIC (minimum inhibitory concentration) [8, 21]: 5.0 µg/mL |
| O=C(O)c1cn(C2CC2)c2cc(N3CCNCC3)c(F)cc2c1=O [Ciprofloxacin] | > 10 µg/mL | < 0.01 µg/mL | > 10 µg/mL | > 10 µg/mL | 0.81 µg/mL (≈ 2.44 µM) | >10 µg/mL | > 10 µg/mL |  |  |  |  |  |  |  |  |  |  |  |  |  | MRS IC50 [6]: >10 µg/mL; C. neoformans IC50 [3]: >10 µg/mL |
